# Results published in patent US20240216344A1, “THIAZOLIDINEDIONE ANALOGS FOR THE TREATMENT OF NAFLD AND METABOLIC DISEASES” (Cirius Therapeutics, Inc., priority 2019, published 2024).
# Test system: patients with NASH
# Test: Meta-analysis of 17 NASH clinical trials: change from baseline in LFTs and biomarkers by study arm, composite outcome
# Type: in vivo, human
# Details: for % Change from Baseline ALT / % Change from Baseline AST / % Change from Baseline Alk Phos / % Change from Baseline CK-18 / % Change from Baseline ELF / % Change from Baseline GGT / % Change from Baseline HbA1c / % Change from Baseline Insulin: EMMINENCE, follow-up 12 months
# Protocol: Meta-regressions of NASH clinical trials were performed to examine associations between biomarker and histological changes within treatment groups, and to additionally examine associations between treatment effects on biomarkers and on liver histology. Trials that met the following criteria were included: • Randomized controlled clinical trial • Paired biopsies performed at baseline and follow-up, scored using the NASH CRN system.
# • Published results at baseline, follow-up, or changes from baseline for any the following liver injury markers or biomarkers: alanine aminotransferase (ALT), aspartate aminotransferase (AST), alkaline phosphatase, hemoglobin A1c (HbA1c), gamma-glutamyltransferase (GGT), insulin, cytokeratin-18 (CK-18), or Enhanced Liver Fibrosis (ELF) score. Variables selected were based on variables whose change was commonly reported in multiple studies. • Changes in histological scores for ballooning, inflammation, steatosis, and fibrosis, or the pre-determined endpoints of NASH resolution without worsening fibrosis or improvement in fibrosis with no worsening of NASH.
# All results from a search of PubMed for the keywords (“nonalcoholic steatohepatitis” or “non-alcoholic steatohepatitis”) and (“clinical trial” or “randomized”) and filtered for “Clinical Trial” were reviewed. EudraCT and ClinicalTrials.gov were searched for the keyword “nonalcoholic steatohepatitis” with results further filtered for phase 2 or 3, interventional, terminated or completed trials. These three sources returned 265 (PubMed), 153 (ClinicalTrials.gov), and 56 (EudraCT) results, which were each individually reviewed for inclusion in the analysis. Data extracted by one analyst from each source that included means and SDs at baseline, end of study, and changes from baseline to end of study for continuous variables were verified and corrected by a second analyst. Where SDs were not available, any provided estimate of variation was used to derive the SD where possible; a plot-digitizer program was used where data were presented in figures only. Data for dichotomous endpoints were extracted as the number of subjects with the event and corresponding sample size.
# Random effects weighted least squares meta-regressions with inverse variance weighting were used to examine the association of changes in ALT, AST, CK-18, HbA1c, fasting insulin levels, ELF, alkaline phosphatase and GGT with biopsy outcomes. CK-18[M30] was measured in all studies except EMMINENCE where CK-18[M651 was reported. These associations were assessed at an individual cohort level (within treatment group), as well as based on the treatment effect. Percent change from baseline in liver injury makers and biomarkers was used as the predictor when examining the associations in the individual cohorts with outcomes while the treatment ratio, the ratio of active to placebo with respect to the relative changes from baseline, was used as the predictor when assessing the association with the treatment effect on outcomes. Standardized mean changes (mean/SD) or standardized mean treatment differences (mean difference/pooled SD) were used for continuous outcomes and Freeman-Tukey double arcsine transformed proportions or log odds ratios were used for dichotomous outcomes. Meta-regression results were computed using the metafor package available in R. P-values <0.05 were considered statistically significant.
# From the meta-regression results, ranks for the association with responses and treatment effects for each histologic outcome (changes in ballooning, inflammation, steatosis, and fibrosis; NASH resolution without worsening of fibrosis, and fibrosis improvement without worsening of NAS) were assigned across seven biomarkers (AST, GGT, HbA1c, insulin, CK-18, ELF, and alkaline phosphatase) for both the slope and the mediator p-value (ranks 1-7, with 7 assigned to the biomarker with the greatest slope or lowest p-value). An average rank across all outcomes was then assigned to each biomarker. […]
smiles,measurement,setting,value
COc1cccc(C(=O)COc2ccc(CC3SC(=O)NC3=O)cc2)c1 (stereo not shown) [MSDC-0602K],"treatment effect on the surrogate endpoint (weighted average of changes in AST, CK-18, HbA1c)",17 NASH clinical trials,largest treatment effects
same,% Change from Baseline ALT,62.5 mg,−15.71%
same,% Change from Baseline AST,62.5 mg,−8.08%
same,% Change from Baseline Alk Phos,62.5 mg,−6.28%
same,% Change from Baseline CK-18,62.5 mg,−7.08%
same,% Change from Baseline ELF,62.5 mg,1.16%
same,% Change from Baseline GGT,62.5 mg,−17.56%
same,% Change from Baseline HbA1c,62.5 mg,−4.16%
same,% Change from Baseline Insulin,62.5 mg,−10.85%
same,% Change from Baseline ALT,125 mg,−28.13%
same,% Change from Baseline AST,125 mg,−21.90%
same,% Change from Baseline Alk Phos,125 mg,−10.70%
same,% Change from Baseline CK-18,125 mg,−22.13%
same,% Change from Baseline ELF,125 mg,0.09%
same,% Change from Baseline GGT,125 mg,−13.47%
same,% Change from Baseline HbA1c,125 mg,−3.79%
same,% Change from Baseline Insulin,125 mg,−30.08%
same,% Change from Baseline ALT,250 mg,−23.82%
same,% Change from Baseline AST,250 mg,−11.81%
same,% Change from Baseline Alk Phos,250 mg,−18.74%
same,% Change from Baseline CK-18,250 mg,−8.61%
same,% Change from Baseline ELF,250 mg,0.89%
same,% Change from Baseline GGT,250 mg,−28.14%
same,% Change from Baseline HbA1c,250 mg,−3.89%
same,% Change from Baseline Insulin,250 mg,−30.62%
